Results: paper PMC5733478, “A Non-imaging High Throughput Approach to Chemical Library Screening at the Unmodified Adenosine-A3 Receptor in Living Cells” (Frontiers in Pharmacology, 2017)
Counter-ions that a name gives are not always drawn.

Target: T1, human A3AR (Homo sapiens, UniProt P0DMS8)
T1 construct: expressed in transfected cells
T1 sequence (P0DMS8 1-318): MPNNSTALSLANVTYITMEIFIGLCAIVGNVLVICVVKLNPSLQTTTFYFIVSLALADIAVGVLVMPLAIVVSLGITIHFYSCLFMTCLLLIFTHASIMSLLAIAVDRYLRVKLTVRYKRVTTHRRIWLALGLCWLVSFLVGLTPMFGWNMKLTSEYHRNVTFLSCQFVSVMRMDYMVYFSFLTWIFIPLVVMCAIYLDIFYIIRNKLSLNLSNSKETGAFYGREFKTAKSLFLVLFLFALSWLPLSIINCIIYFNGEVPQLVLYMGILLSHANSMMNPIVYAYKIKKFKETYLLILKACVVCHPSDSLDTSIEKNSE
Assay: LOPAC library primary screen: single concentration (10 μM) inhibition of 25 nM CA200645 binding, PHERAstar FS
Details: not given

Molecule | % 25 nM CA200645 binding [%]
COC(=O)C(N)Cc1ccc(Cl)cc1.Cl (racemic) | 95.7 ± 6.7
CNC1(C)C2CCC(C2)C1(C)C (centres unmarked) [Mecamylamine hydrochloride] | 65.4 ± 10.0
O=P(O)(O)C(Cl)(Cl)P(=O)(O)O [Clodronic acid] | 98.4 ± 3.5
Nc1c(S(=O)(=O)O)cc(Nc2ccc(Nc3nc(Cl)nc(Nc4cccc(S(=O)(=O)O)c4)n3)c(S(=O)(=O)O)c2)c2c1C(=O)c1ccccc1C2=O [Reactive Blue 2] | 24.5 ± 2.7
CC1=C(CC(=O)O)c2cc(F)ccc2/C1=C\c1ccc(S(C)(=O)=O)cc1 [Sulindac sulfone] | 84.5 ± 13.2
O=C(c1ccc(OCCN2CCCCC2)cc1)c1c(-c2ccc(O)cc2)sc2cc(O)ccc12 [Raloxifene hydrochloride] | 90.8 ± 14.0
10058-F4 | 75.9 ± 8.5
CN1C(=O)CCS(=O)(=O)C1c1ccc(Cl)cc1 (centres unmarked) [Chlormezanone] | 101.4 ± 10.9
O=C(O)/C=C\C(=O)O.O=C1/C(=C/c2ccccc2)C[C@@]2(O)[C@H]3Cc4ccc(O)c5c4[C@@]2(CCN3CC2CC2)[C@H]1O5 [BNTX maleate salt hydrate] | 109.9 ± 5.7
Cl.O=c1cc(N2CCOCC2)oc2c(-c3ccccc3)cccc12 [LY-294,002 hydrochloride] | 94.6 ± 11.0
CCCCCCC(=O)OC1CC(C)(C)NC(C)(C)C1.Cl [TMPH hydrochloride] | 95.1 ± 13.7
Cc1cccc(-c2[nH]ncc2-c2ccc3ncccc3n2)n1 [RepSox] | 98.5 ± 5.4
C[C@H](N[C@@H](CCc1ccccc1)C(=O)O)C(=O)N1CCC[C@H]1C(=O)O.O.O [Enalaprilat dihydrate] | 95.6 ± 2.1
O=[N+]([O-])c1cccc2c(Br)n[nH]c12 [3-Bromo-7-nitroindazole] | 81.2 ± 6.7
O=[N+]([O-])c1ccc(CNc2nc(NCc3cccc(C(F)(F)F)c3)nc3nc[nH]c23)cc1 [TNP] | 61.8 ± 11.7
CC(=O)N[C@@H](CS)C(=O)O [N-Acetyl-L-Cysteine] | 100.3 ± 0.2
O=C1c2c(O)ccc(O)c2C(=O)c2c(NCCNCCO)ccc(NCCNCCO)c21 [Mitoxantrone] | 88.5 ± 12.7
Br.CCCN1CCc2cc(O)cc3c2[C@H]1Cc1ccc(O)c(O)c1-3 | 89.0 ± 14.4
Ic1ccccc1CNC1C2CCN(CC2)C1C(c1ccccc1)c1ccccc1.O=C(O)C(=O)O [L-703,606 oxalate salt hydrate] | 93.3 ± 4.4
CC(C)N(CCC(=O)c1ccc2ccccc2c1)Cc1ccccc1.Cl [ZM 39923 hydrochloride] | 115.5 ± 23.0
CS(=O)(=O)O.Cn1cc(C(F)(F)F)nc1-c1ccc(OCC(O)CNCCOc2ccc(O)c(C(N)=O)c2)cc1 (centres unmarked) [CGP 20712A methanesulfonate] | 106.4 ± 13.7

Molecule | % 25 nM CA200645 binding [%]
Cc1nc(N=Nc2ccc(S(=O)(=O)O)cc2S(=O)(=O)O)c(COP(=O)(O)O)c(C=O)c1O [PPADS] | 106.1 ± 11.3
CCN(CC)CCCC(C)Nc1c2ccc(Cl)cc2nc2ccc(OC)cc12 (centres unmarked) [Quinacrine dihydrochloride] | 98.2 ± 4.9
CCC1(C)CC(=O)NC1=O (centres unmarked) [Ethosuximide] | 88.4 ± 5.5
COc1ccccc1CN[C@@H]1CCCN[C@@H]1c1ccccc1.Cl.Cl.O [CP-100263 dihydrochloride hydrate] | 98.5 ± 6.9
CC(C)Cn1c(=O)n(C)c(=O)c2[nH]cnc21 [3-Isobutyl-1-methylxanthine] | 98.0 ± 7.1
O=C(CCSCc1ccco1)NNC(=O)N1Cc2ccccc2Oc2ccc(Cl)cc21 [SC-51322] | 86.9 ± 5.7
CN(C)c1nc(N)c(C(=O)NC(=N)N)nc1Cl [5-(N,N-Dimethyl)amiloride hydrochloride] | 95.5 ± 2.7
CC(=O)Oc1ccccc1C(=O)O [Acetylsalicylic acid] | 102.5 ± 9.1
Oc1ncnc2[nH]ncc12 [Allopurinol] | 99.8 ± 7.2
Nc1nccc2c1ncn2[C@@H]1O[C@H](CO)[C@@H](O)[C@H]1O [3-deazaadenosine] | 93.8 ± 11.9
[N-]=[N+]=Nc1ccc(C(=O)CSC[C@H](NC(=O)CC[C@H](N)C(=O)O)C(=O)NCC(=O)O)cc1 [S-(p-Azidophenacyl)glutathione] | 82.4 ± 8.6
C[C@H]1C[C@H]2[C@@H]3CCC4=CC(=O)C=C[C@]4(C)[C@@]3(F)[C@@H](O)C[C@]2(C)[C@@]1(O)C(=O)CO [Betamethasone] | 77.0 ± 7.6
CCn1cc(C(=O)[O-])c(=O)c2ccc(C)nc21.[Na+] [Nalidixic acid sodium] | 106.1 ± 13.7
CCN(CC)C(C)CN1c2ccccc2Sc2ccccc21 (centres unmarked) [Ethopropazine hydrochloride] | 108.3 ± 15.2
CC1=NS(=O)(=O)c2cc(Cl)ccc2N1 [Diazoxide] | 101.5 ± 12.2
N#C/C(=C\c1ccc(O)c(O)c1)C(=O)c1ccc(O)c(O)c1 [Tyrphostin AG 538] | 90.2 ± 14.0
O=C(O)C(O)C(O)C(=O)O.c1cnc2cc3c(cc2n1)[C@@H]1CNC[C@H]3C1 [Varenicline tartrate] | 90.5 ± 2.6
C[N+](C)(C)CCOC(N)=O [Carbachol] | 103.1 ± 3.5
CS(=O)(=O)O.Cc1c(O)cccc1C(=O)N[C@@H](CSc1ccccc1)[C@H](O)CN1C[C@H]2CCCC[C@H]2C[C@H]1C(=O)NC(C)(C)C.O [Nelfinavir mesylate hydrate] | 77.3 ± 17.3
O=C1CC2(CCCC2)CC(=O)N1CCCCN1CCN(c2ncccn2)CC1 [Buspirone hydrochloride] | 102.9 ± 6.0
CC1(C)NC(=O)N(c2ccc([N+](=O)[O-])c(C(F)(F)F)c2)C1=O [Nilutamide] | 98.7 ± 10.0

Molecule | % 25 nM CA200645 binding [%]
OC[C@H]1O[C@@H](n2cnc3c(N[C@H]4CCC[C@@H]4O)ncnc32)[C@H](O)[C@@H]1O [GR 79236X] | 78.0 ± 19.3
N[C@@H](Cc1ccc(O)c(O)c1)C(=O)O [L-3,4-Dihydroxyphenylalanine] | 99.1 ± 9.5
Cc1cn[nH]c1.Cl [4-Methylpyrazole hydrochloride] | 102.3 ± 3.8
CC(C)(C)c1o[nH]c(=O)c1CC(N)C(=O)O (centres unmarked) [ATPA] | 96.6 ± 6.2
CCCCCCCC/C=C\CCCCCCCC(=O)NCCc1ccc(O)c(O)c1 [N-Oleoyldopamine] | 53.5 ± 8.3
CCn1cc(C(=O)O)c(=O)c2cc(F)c(N3CCNC(C)C3)c(F)c21 (centres unmarked) [Lomefloxacin hydrochloride] | 96.9 ± 10.1
O=C(OCCN1CCOCC1)C1(c2ccccc2)CCCCC1 [PRE-084] | 100.3 ± 14.3
O=[N+]([O-])/C=C/c1ccc2c(c1)OCO2 [MNS] | 50.1 ± 14.8
CCN1CCCC1CNC(=O)c1cc(S(=O)(=O)CC)c(N)cc1OC (centres unmarked) [Amisulpride] | 98.0 ± 5.3
CCOC(=O)C1=C[C@]2(CC)CCCN3CCc4c(n1c1ccccc41)[C@@H]32 [Vinpocetine] | 97.3 ± 11.5
Nc1ncnc2c1nc(Sc1ccc(Cl)cc1)n2C1OC2COP(=O)(O)OC2C1O (stereo in doubt) [8-(4-Chlorophenylthio)-cAMP sodium] | 91.8 ± 2.6
CNCCc1c[nH]c2ccc(O)cc12.O=C(O)C(=O)O | 111.6 ± 33.8
OC[C@H]1O[C@@H](n2cnc3c(NC4CCCCC4)ncnc32)[C@H](O)[C@@H]1O [N6-Cyclohexyladenosine] | 92.9 ± 12.9
CC(C)(C)c1ccc(/C=C/C(=O)Nc2ccc3c(c2)OCCO3)cc1 [AMG 9810] | 59.0 ± 6.4
C[N+](C)(C)CCCCCC[N+](C)(C)C [Hexamethonium bromide] | 99.4 ± 1.1
Oc1ccc(C2CNCCc3c2cc(O)c(O)c3Cl)cc1 (centres unmarked) [Fenoldopam bromide] | 90.6 ± 5.5
Ro 90-7501 | 72.1 ± 6.0
Oc1ccc(O)cc1 [Hydroquinone] | 100.7 ± 6.6
C[N+]1(C)[C@@H]2CC(OC(=O)[C@H](CO)c3ccccc3)C[C@H]1[C@@H]1O[C@@H]12.O=[N+]([O-])[O-] (single isomer, unassigned; (-)) [(-)-Scopolamine methyl nitrate] | 89.5 ± 24.4

Same assay, conditions: % of control wells (1% DMSO and 25 nM CA200645); compounds at 10 µM; […]; mean ± SD, three experiments in duplicate

Molecule | % 25 nM CA200645 binding [%]
O=c1c(O)c(-c2ccc(O)c(O)c2)oc2cc(O)cc(O)c12 [Quercetin dihydrate] | 25.2 ± 6.9
CN1CCN(CCCN2c3ccccc3Sc3ccc(C(F)(F)F)cc32)CC1 [Trifluoperazine dihydrochloride] | 97.1 ± 25.1

Same assay, conditions: % of control wells (1% DMSO and 25 nM CA200645); compounds at 10 µM; whole live cells expressing the A3AR; mean ± SD, three experiments in duplicate

Molecule | % 25 nM CA200645 binding [%]
Clc1ccc2c(c1)N=C(N1CCNCC1)c1ccccc1N2 [N-Desmethylclozapine] | 98.4 ± 14.7
Cc1nc2sccn2c(=O)c1CCN1CCC(=C(c2ccc(F)cc2)c2ccc(F)cc2)CC1 [Ritanserin] | 79.4 ± 12.5

Same assay, conditions: compounds tested at 10 µM; % of control wells (1% DMSO and 25 nM CA200645); whole live cells expressing the A3AR; mean ± SD, three experiments in duplicate

Molecule | % 25 nM CA200645 binding [%]
N#CC(C#N)=C(N)/C(C#N)=C/c1cc(O)c(O)c(O)c1 [Tyrphostin 51] | 94.9 ± 2.9
CCCOc1ccccc1-c1nc2nn[nH]c2c(=O)[nH]1 [Zaprinast] | 109.4 ± 6.4
O=C1CC[C@@]2(O)[C@H]3Cc4ccc(O)c5c4[C@@]2(CCN3CC2CC2)[C@H]1O5 [Naltrexone hydrochloride] | 102.6 ± 6.5
